pEC50, pKi: −log10 of the molar value.
What was measured:
[1] = target: T1, full-length hepatitis C NS3 protease enzyme with NS4A cofactor (HCV NS3/4A protease complexes) (Hepatitis C virus genotype 1a, UniProt P27958); test: HCV NS3/4A protease inhibition assay (enzymatic); type: biochemical; conditions: full-length NS3 1 nM, 25 μM NS4A cofactor, 0.5 μM depsipeptide substrate, 30° C., competitive inhibition model
T1 construct: full-length hepatitis C NS3 protease enzyme
Method: [Landro, 1997 #Biochem 36 9340-9348]. […] The solutions were stored at −20° C. between measurements.
The final concentration of DMSO in the assay sample is adjusted to 3.3%. The rate of hydrolysis is corrected for inner filter effects according to published procedures. [Liu, 1999 Analytical Biochemistry 267 331-335]. […] A minimum of two replicates are performed for all measurements.

[2] = test system: HCV replicons (NS3-NS5B regions of HCV type 1b) in Huh-7 luc/neo cells; test: HCV replicon assay (Huh-Luc cells, luciferase readout); type: cell-based; conditions: Hepatitis C virus, Huh-7, 72 h, HCV type 1b replicon, three days incubation, luciferase activity
Source text: The compounds of formula (I) were examined for activity in the inhibition of HCV RNA replication in a cellular assay. […] The cellular assay was based on a bicistronic expression construct, as described by Lohmann et al. (1999) Science vol. 285 pp. 110-113 with modifications described by Krieger et al. (2001) Journal of Virology 75: 4614-4624, in a multi-target screening strategy. In essence, the method was as follows.
The assay utilized the stably transfected cell line Huh-7 luc/neo (hereafter referred to as Huh-Luc). This cell line harbors an RNA encoding a bicistronic expression construct comprising the wild type NS3-NS5B regions of HCV type 1b translated from an Internal Ribosome Entry Site (IRES) from encephalomyocarditis virus (EMCV), preceded by a reporter portion (FfL-luciferase), and a selectable marker portion (neo^R, neomycine phosphotransferase). […]
The replicon cells were plated in 384 well plates in the presence of the test and control compounds which were added in various concentrations. Following an incubation of three days, HCV replication was measured by assaying luciferase activity (using standard luciferase assay substrates and reagents and a Perkin Elmer ViewLux™ ultraHTS microplate imager). […] The inhibitory activity of the compound on luciferase activity was monitored on the Huh-Luc cells, enabling a dose-response curve for each test compound.

T1 sequence (P27958 1027-1657, one chain of several): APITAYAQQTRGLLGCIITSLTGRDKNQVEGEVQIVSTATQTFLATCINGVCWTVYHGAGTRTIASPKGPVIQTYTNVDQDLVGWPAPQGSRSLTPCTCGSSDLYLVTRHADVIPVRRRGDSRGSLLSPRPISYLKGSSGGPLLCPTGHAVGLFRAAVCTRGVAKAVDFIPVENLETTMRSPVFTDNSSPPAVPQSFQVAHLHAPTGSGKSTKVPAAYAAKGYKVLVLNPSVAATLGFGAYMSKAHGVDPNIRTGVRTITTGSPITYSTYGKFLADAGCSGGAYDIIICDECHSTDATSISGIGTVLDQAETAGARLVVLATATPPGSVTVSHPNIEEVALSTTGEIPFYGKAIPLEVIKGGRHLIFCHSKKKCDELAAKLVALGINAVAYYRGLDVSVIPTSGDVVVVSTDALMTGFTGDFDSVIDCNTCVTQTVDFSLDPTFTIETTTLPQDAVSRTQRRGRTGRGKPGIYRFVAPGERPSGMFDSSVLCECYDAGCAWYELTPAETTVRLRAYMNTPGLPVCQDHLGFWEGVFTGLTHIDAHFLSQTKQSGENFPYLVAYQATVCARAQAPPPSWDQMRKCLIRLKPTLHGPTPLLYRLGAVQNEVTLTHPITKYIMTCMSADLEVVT

Q: With `COc1ccc2c(O[C@@H]3C[C@H]4C(=O)N[C@]5(C(=O)O)CC5/C=C\CCCCN(N(C)C)C(=O)[C@@H]4C3)cc(-c3ccccc3)nc2c1` (stereo partly shown) [Example 88, 13-Dimethylamino-17-(7-methoxy-2-phenyl-quinolin-4-yloxy-2,14-dioxo-3,13-diaza-tricyclo[13.3.0.0*4,6*]octadec-7-ene-4-carboxylic acid] as the compound, how does the pKi [1] read?
A: 5.70 to 7.00

Q: And the pEC50 [2]?
A: 5.00 to 6.00

Q: With `COc1ccc2c(O[C@@H]3C[C@H]4C(=O)N[C@]5(C(=O)NS(=O)(=O)C6CC6)CC5/C=C\CCCCN(N(C)C)C(=O)[C@@H]4C3)cc(-c3ccccc3)nc2c1` (stereo partly shown) [Example 89, Cyclopropanesulphonic acid [13-dimethylamino-17-(7-methoxy-2-phenyl-quinolin-4-yloxy)-2,14-dioxo-3,13-diaza-tricyclo[13.3.0.0*4,6*]octadec-7-ene-4-carbonyl]-amide] as the compound, how does the pKi [1] read?
A: 8.31 to 10.00

Q: And the pEC50 [2]?
A: 7.31 to 9.30

Reference: patent US7700552B2, “Macrocyclic inhibitors of hepatitis C virus” (Medivir AB, priority 2005, dated 2010)
